Measurements: PMC13128453, “Complexoform-restricted covalent TRMT112 ligands that allosterically agonize METTL5” (Nature Chemical Biology, 2025)
Blank lines part the entries; values can stand above or below the molecule they belong to.

Columns and labels:
REEP5 = target: T1, REEP5 (Homo sapiens, UniProt Q00765); experiment: cysteine-directed and competitive protein-directed ABPP in cells; type: cell-based; conditions: read-out: Competition (%)
T1 construct: endogenous protein in Ramos cells

TRMT112 [1] = target: T2, TRMT112 (Homo sapiens, UniProt Q9NRN9+Q9UI30); experiment: intact MS kobs/[I] on purified complex; competitive gel-ABPP in HCT116 cells (IC50); type: cell-based; design: TRMT112-FLAG:HA-METTL5 in HCT116 cells (IC50); purified TRMT112:His-METTL5 (intact MS); with METTL5
UVRAG = target: T3, UVRAG (Homo sapiens, UniProt Q9P2Y5); experiment: cysteine-directed and competitive protein-directed ABPP in cells; type: cell-based; conditions: read-out: Competition (%)
T3 construct: endogenous protein in Ramos cells
T3 sequence (Q9P2Y5 1-699): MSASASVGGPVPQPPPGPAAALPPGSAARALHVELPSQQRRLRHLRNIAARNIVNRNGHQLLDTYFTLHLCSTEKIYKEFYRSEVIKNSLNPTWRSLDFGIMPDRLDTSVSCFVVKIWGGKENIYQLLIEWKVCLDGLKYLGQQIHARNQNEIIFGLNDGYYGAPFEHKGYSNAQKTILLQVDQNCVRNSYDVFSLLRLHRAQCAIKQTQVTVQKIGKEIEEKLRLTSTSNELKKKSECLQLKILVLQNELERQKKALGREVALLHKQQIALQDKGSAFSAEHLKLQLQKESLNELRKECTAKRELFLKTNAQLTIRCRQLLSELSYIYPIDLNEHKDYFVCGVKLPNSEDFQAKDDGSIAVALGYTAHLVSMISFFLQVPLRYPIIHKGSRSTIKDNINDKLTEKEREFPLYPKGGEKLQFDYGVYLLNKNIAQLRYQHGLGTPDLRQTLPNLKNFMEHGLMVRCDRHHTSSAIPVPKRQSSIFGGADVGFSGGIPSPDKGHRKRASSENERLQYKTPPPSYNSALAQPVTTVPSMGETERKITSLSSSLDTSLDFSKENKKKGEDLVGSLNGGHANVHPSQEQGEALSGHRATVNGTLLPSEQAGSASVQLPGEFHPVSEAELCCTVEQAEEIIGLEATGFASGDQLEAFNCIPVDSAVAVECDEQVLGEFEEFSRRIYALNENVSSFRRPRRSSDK

RNF14 [2] = target: T4, RNF14 (Homo sapiens, UniProt Q9UBS8); experiment: cysteine-directed ABPP (Glu-C) and competitive protein-directed ABPP in cells; type: cell-based; design: endogenous RNF14 in Ramos cells; recombinant RNF14-FLAG in HEK293T cells; conditions: read-out: Competition (%)
T4 sequence (Q9UBS8 1-474): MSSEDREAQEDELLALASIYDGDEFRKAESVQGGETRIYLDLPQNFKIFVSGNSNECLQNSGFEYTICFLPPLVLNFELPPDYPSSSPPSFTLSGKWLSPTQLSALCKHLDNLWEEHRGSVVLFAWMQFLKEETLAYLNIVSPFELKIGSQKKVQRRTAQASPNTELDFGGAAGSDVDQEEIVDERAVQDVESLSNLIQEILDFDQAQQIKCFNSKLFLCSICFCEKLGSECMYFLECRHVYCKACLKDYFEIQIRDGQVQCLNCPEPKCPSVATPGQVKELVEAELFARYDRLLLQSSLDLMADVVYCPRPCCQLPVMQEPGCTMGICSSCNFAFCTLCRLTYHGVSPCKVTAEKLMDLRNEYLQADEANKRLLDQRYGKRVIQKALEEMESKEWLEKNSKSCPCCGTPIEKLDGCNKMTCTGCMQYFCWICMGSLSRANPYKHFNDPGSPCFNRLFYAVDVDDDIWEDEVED

TRMT112 [3] = target: T2, TRMT112; experiment: intact MS kobs/[I] on purified complex; gel-ABPP and protein-directed ABPP in cells; type: binding; design: purified WT-TRMT112:His-METTL5 (intact MS); TRMT112-FLAG in HCT116 cells coexpressing HA-METTL5; with METTL5
RNF14 [4] = target: T4, RNF14; experiment: gel-ABPP and protein-directed ABPP in cells; type: cell-based; design: RNF14-FLAG expressed in HEK293T cells
TRMT112 [5] = target: T2, TRMT112; experiment: […] A cocrystal structure; intact MS (kobs/[I][…] s-1); competitive gel-ABPP on purified complex; type: binding; design: full-length, tag-free TRMT112:METTL5 complex (crystal); TRMT112:His-METTL5 (IC50); with METTL5
[6] = target: T5, METTL5 (tag-free, of the tag-free TRMT112:METTL5 complex) (human, UniProt Q9NRN9 1-209); experiment: crystal structure; tag-free TRMT112:METTL5 complex modified with FWG-33B in the presence of SAM; crystals in 21% PEG3350, 0.36 M ammonium sulfate, 0.1 M Bis–Tris pH 5.5, 4 °C; 1.3 Å; conditions: both partners purified
T5 construct: METTL5, human, full-length gene codon-optimized for E. coli; same construct as His–METTL5, the His tag removed with TEV protease; By the printed primer a Ser would remain before the first Met after TEV cleavage; also called WT-METTL5; source: E. coli BL21 (DE3), coexpressed with TRMT112, purified (Ni-NTA, TEV cleavage, Ni-NTA, anion exchange, SEC); not shown: His tag, N-terminal, cleaved
T5 sequence (Q9NRN9 whole entry, one chain of several): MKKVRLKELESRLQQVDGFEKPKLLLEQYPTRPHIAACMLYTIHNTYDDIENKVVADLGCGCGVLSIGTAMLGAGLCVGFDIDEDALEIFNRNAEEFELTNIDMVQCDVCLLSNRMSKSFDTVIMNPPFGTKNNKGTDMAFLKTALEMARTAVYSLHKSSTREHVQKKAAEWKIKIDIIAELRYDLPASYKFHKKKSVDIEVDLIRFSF

T2 sequence (Q9NRN9 whole entry, one chain of several): as above
T1 sequence (Q00765 whole entry): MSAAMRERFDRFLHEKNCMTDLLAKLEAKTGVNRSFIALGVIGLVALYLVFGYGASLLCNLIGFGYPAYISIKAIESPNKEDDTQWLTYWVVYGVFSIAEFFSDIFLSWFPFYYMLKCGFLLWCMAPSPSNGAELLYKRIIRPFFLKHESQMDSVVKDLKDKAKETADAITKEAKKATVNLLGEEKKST

Molecule: C=CC(=O)N1C[C@@H]2[C@H](C1)[C@@H](c1cccc(OC)c1)C[C@H]2Oc1ccc(NC(C)=O)cc1 [compound 10, FWG-1B]
inhibition at 50 µM (REEP5): > 60%
IC50 (TRMT112 [1]): 12 µM

Molecule: C=CC(=O)N1C[C@@H]2[C@H](C1)[C@H](Oc1ccc(NC(C)=O)cc1)C[C@H]2c1cccc(OC)c1 [compound 11, FWG-2A]
inhibition at 50 µM (UVRAG): > 80%

Molecule: C#CCCC(=O)Nc1ccc(O[C@@H]2C[C@H](c3cccc(OC)c3)[C@H]3CN(C(=O)C=C)C[C@H]32)cc1 [compound 14, FWG-3B]
intact MS kobs/[I] on purified complex; gel-ABPP and protein-directed ABPP in ce (TRMT112 [3]): FWG-3B showed enhanced reactivity with TRMT112 exclusively in cells coexpressing the RNA MT METTL5

Molecule: C#CCCC(=O)Nc1ccc(O[C@H]2C[C@H](c3cccc(OC)c3)[C@H]3CN(C(=O)C=C)C[C@H]32)cc1 [compound 16, FWG-4B]
gel-ABPP and protein-directed ABPP in cells (RNF14 [4]): engagement of recombinant WT-RNF14-FLAG and C68A-RNF14-FLAG, but not C212A-RNF14-FLAG by FWG-4B

B1: TRMT112 modified by FWG-33B at C100 (of the FWG-33B-liganded tag-free TRMT112:METTL5 complex) (natural protein, human, UniProt Q9UI30 1-125, looked up)
chain: MKLLTHNLLSSHVRGVGSRGFPLRLQATEVRICPVEFNPNFVARMIPKVEWSAFLEAADNLRLIQVPKGPVEGYEENEEFLRTMHHLLLEVEVIEGTLQCPESGRMFPISRGIPNMLLSEEETES
modifications: covalent adduct between the acrylamide of FWG-33B and C100
notes: TRMT112, human, full-length gene codon-optimized for E. coli, in pACYCDuet-1; also called FWG-33B-modified TRMT112; source: E. coli BL21 (DE3), coexpressed with METTL5, purified as tag-free complex, then treated with 100 μM FWG-33B
binding result [6]: binds

The remaining lines, values ahead:

inhibition at 50 µM (RNF14 [2]): > 80%
Molecule: C=CC(=O)N1C[C@@H]2[C@H](C1)[C@@H](c1cccc(OC)c1)C[C@@H]2Oc1ccc(NC(C)=O)cc1 [compound 12, FWG-2B]

IC50 (TRMT112 [5]): 0.47 µM
Molecule: C=CC(=O)N1C[C@@H]2[C@H](C1)[C@@H](c1cccc(Cl)c1)C[C@H]2Oc1ccc(NC(C)=O)cc1 [compound 22, FWG-33B]
